Measured values from patent EP0463173B1, “HAIR TONIC AND DRESSING COMPOSITION” (OTSUKA PHARMACEUTICAL CO., LTD., priority 1990, dated 1991).

Test system: shaved mice
Assay: Hair grow-promoting effect in shaved mice (method of Kubo et al.), hair grow score
Type: in vivo, ddy male mice
Conditions: 0.2 ml of 0.2 % solution in 75 % ethanol applied to shaved back once a day, score 0-4, 15 mice
Experimental: According to the method of Kubo et al. (Yakugaku Zasshi 108 (10) P971-978 (1988)), an experiment was conducted using six weeks old ddy male mice. Depilatory cream was applied to the back of mice, and after 8 minutes, wiped off with absorbent cotton soaked with hot water at 40°C to remove hair at 4 to 5 cm². The next day, those mice with no injury and undepilated hair were selected and used as shaved mice. Each experimental group consisted of 15 mice.
Each 0.2 ml of a solution to be tested and a control solution were uniformly applied to the shaved part of mice with a brush once a day for 18 days.
Evaluation of the hair grow-promoting effect was conducted by evaluating a hair grow score at two day intervals for 18 days and testing a significance difference with Willcoxon Rank sum test. The following hair grow score standards were employed: 0: Completely no growth of hair is observed with naked eye 1: Recovery up to 25 % of normal state 2: Recovery up to 50 % of normal state 3: Recovery up to 75 % of normal state 4: Recovery up to nearly normal state and each standard score were further subdivided into three stages and hair grow score was obtained for each mouse.
The samples used for testing for effect were as follows: Control: 75 % etanol solution Preparation of the present invention: 0.2 % 6-[4-(1-cyclohexyl-1,2,3,4-tetrazol-5-yl)butoxy]-3,4-dihydrocarbostyril in 75 % ethanol solution The results are shown in Table 1.

Structure (SMILES): O=C1CCc2cc(OCCCCc3nnnn3C3CCCCC3)ccc2N1 [Prep. of invention, 6-[4-(1-cyclohexyl-1,2,3,4-tetrazol-5-yl)butoxy]-3,4-dihydrocarbostyril]
- mean hair grow score ± S.E. (day 8 of treatment): 0.12±0.07
- mean hair grow score ± S.E. (day 10 of treatment): 0.17±0.07
- mean hair grow score ± S.E. (day 12 of treatment): 0.72±0.17
- mean hair grow score ± S.E. (day 14 of treatment): 1.45±0.23
- mean hair grow score ± S.E. (day 16 of treatment): 2.25±0.27
- mean hair grow score ± S.E. (day 18 of treatment): 2.58±0.28
